This assay relates to C57BL/6J mice. Put plainly: Glucokinase activator in vivo screen (blood glucose after oral dosing). Conditions: administered orally, 50 mg/kg, active = significant (p≦0.05) decrease in blood glucose vs vehicle at two consecutive time points. As to the method: Glucokinase Activator in vivo Screen Protocol
C57BL/6J mice are orally dosed via gavage with Glucokinase (GK) activator at 50 mg/kg body weight following a two hour fasting period. Blood glucose determinations are made five times during the six hour post-dose study period.
Mice (n=6) are weighed and fasted for a two hour period prior to oral treatment. GK activators are formulated at 6.76 mg/ml in Gelucire vehicle (Ethanol:Gelucire44/14:PEG400q.s. 4:66:30 v/w/v. Mice are dosed orally with 7.5 μL formulation per gram of body weight to equal a 50 mg/kg dose. Immediately prior to dosing, a pre dose (time zero) blood glucose reading is acquired by snipping off a small portion of the animals tail (˜1 mm) and collecting 15 μL blood into a heparinized capillary tube for analysis. Following GK activator administration, additional blood glucose readings are taken at 1, 2, 4, and 6 hours post dose from the same tail wound. Results are interpreted by comparing the mean blood glucose values of six vehicle treated mice with six GK activator treated mice over the six hour study duration.

The source of these data is patent publication US6448399B1, “Fused heteroaromatic glucokinase activators” (Hoffmann-La Roche Inc., priority 2000, dated 2002).

On to `CS(=O)(=O)c1ccc(C(CC2CCCC2)C(=O)Nc2ccc3ccccc3n2)cc1Cl` (stereo not drawn) [Example 22, 2-(3-Chloro-4-methanesulfonyl-phenyl)-3-cyclopentyl-N-quinolin-2-yl-propionamide], for which the “glucokinase activator in vivo activity” value is listed as “excellent glucokinase activator in vivo activity”.
`CS(=O)(=O)c1ccc([C@@H](CC2CCCC2)C(=O)Nc2nc3ccccc3s2)cc1Cl` [Example 19, N-Benzothiazol-2-yl-2(R)-(3-chloro-4-methanesulfonyl-phenyl)-3-cyclopentyl-propionamide]: the “glucokinase activator in vivo activity” value was “excellent glucokinase activator in vivo activity”.
The value for `CS(=O)(=O)c1ccc(C(CC2CCCC2)C(=O)Nc2nc3ccccc3[nH]2)cc1Cl` (stereo not drawn) [Example 20, N-(1H-Benzoimidazol-2-yl)-2-(3-chloro-4-methanesulfonyl-phenyl)-3-cyclopentyl-propionamide] was “excellent glucokinase activator in vivo activity”.
